The assay addresses Envelope glycoprotein gp160 (Human immunodeficiency virus 1, UniProt Q6QLK5). Description: cell-free HIV fusion peptide-binding blockers – biochemical, uHTS, fluorescence dequenching, […] (AID 1986).

The source made the active and inactive calls. No stated cut-off is given here; in the data, actives have a measured IC50 and inactives only a lower limit.

Chain of Envelope glycoprotein gp160 (Q6QLK5 whole entry, the tested form may be a part): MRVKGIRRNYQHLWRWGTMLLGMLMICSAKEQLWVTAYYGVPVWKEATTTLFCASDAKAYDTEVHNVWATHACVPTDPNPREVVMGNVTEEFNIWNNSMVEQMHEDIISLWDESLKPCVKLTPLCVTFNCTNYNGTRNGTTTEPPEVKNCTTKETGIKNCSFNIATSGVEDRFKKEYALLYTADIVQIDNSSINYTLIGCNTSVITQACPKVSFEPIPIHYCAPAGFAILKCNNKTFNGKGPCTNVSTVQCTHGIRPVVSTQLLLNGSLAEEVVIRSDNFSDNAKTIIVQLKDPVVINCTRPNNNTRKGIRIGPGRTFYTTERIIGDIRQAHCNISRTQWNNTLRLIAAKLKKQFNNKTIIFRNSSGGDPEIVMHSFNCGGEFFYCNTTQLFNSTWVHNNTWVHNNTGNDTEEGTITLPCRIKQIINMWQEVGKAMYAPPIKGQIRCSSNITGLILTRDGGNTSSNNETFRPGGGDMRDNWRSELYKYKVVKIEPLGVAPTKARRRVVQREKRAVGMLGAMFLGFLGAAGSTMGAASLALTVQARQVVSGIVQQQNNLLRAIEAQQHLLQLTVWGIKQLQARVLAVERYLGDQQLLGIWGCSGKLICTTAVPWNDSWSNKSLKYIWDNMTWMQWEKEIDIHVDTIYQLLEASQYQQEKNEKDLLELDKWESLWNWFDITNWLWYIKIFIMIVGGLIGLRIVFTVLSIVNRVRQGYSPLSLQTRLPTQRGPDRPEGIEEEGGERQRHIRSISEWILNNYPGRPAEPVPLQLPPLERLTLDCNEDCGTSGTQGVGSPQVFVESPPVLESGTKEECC

In general, IC50 refers to the concentration needed to halve the response being measured. As for `CN(C)S(=O)(=O)c1cccc(-c2nn(-c3ccccc3)cc2/C=C2\SC(=S)N(CC(=O)O)C2=O)c1`, the IC50 is 15.3 µM (active).
For the compound `CC1=C(C(=O)OC(C)C)C(c2ccc(Cl)cc2)n2c(s/c(=C\c3ccc(OCC(=O)O)cc3)c2=O)=N1` (configuration not stated), the IC50 is 13.4 µM (active).

(Values after ChEMBL document CHEMBL1201862, “PubChem BioAssay data set” (2004).)
